Experimental data from ChEMBL document CHEMBL5329193, “Targeting Mycobacterium tuberculosis iron-scavenging tools: a recent update on siderophores inhibitors” (RSC Med Chem, 2023).
Converted amounts (≈) assume the structure as drawn.

Tested on: Mycobacterium tuberculosis
Assay: Antitubercular activity against Multi-drug resistant Mycobacterium tuberculosis assessed as inhibition of bacterial growth incubated for 14 days by microplate alamar blue assay
Type: functional
Conditions: 336 h, time 14 day

In the case of `CCCCCCCCCCCCCCCCC(=O)N(O)CCCC[C@H](NC(=O)[C@@H]1COC(c2ccccc2O)=N1)C(=O)NC[C@H](CC(=O)CCCO[C@H]1O[C@@H]2O[C@@]3(C)CC[C@H]4[C@H](C)CC[C@@H]([C@H]1C)[C@@]24OO3)C(=O)N[C@H]1CCCCN(O)C1=O`, the MIC was 0.16 µg/mL (≈ 0.137 µM).
